# What was measured:
# Egl nine homolog 1 = Egl nine homolog 1 (Homo sapiens, UniProt Q9GZT9); assay: Binding affinity to […] PHD2 (181 to 426 residues) (unknown origin) by fluorescence polarization assay
# [1] = Metabolic stability in rat liver microsomes assessed as clearance at 1 uM preincubated for 5 mins followed by NADPH addition and measured upto 60 mins by LC-MS/MS analysis; assay type: ADME, Microsome; details: time < 65 min, read-out: CLH
# [2] = Metabolic stability in rat liver microsomes assessed as half life at 1 uM preincubated for 5 mins followed by NADPH addition and measured upto 60 mins by LC-MS/MS analysis; assay type: ADME, Microsome; details: time < 65 min
# Chain of Egl nine homolog 1 (Q9GZT9 whole entry, the tested form may be a part): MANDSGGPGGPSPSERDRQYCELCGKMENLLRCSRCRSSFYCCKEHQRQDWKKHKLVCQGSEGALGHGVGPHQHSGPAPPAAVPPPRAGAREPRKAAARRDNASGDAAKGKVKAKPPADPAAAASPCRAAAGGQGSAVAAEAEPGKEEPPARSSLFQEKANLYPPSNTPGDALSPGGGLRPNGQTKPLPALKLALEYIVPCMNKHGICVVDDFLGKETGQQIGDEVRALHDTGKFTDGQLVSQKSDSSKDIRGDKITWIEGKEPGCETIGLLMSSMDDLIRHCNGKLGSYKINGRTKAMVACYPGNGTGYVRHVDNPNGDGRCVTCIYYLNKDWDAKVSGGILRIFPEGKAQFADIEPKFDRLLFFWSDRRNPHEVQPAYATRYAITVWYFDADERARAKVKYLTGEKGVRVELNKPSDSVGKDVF
Structure (SMILES),IC50 (Egl nine homolog 1) [nM],microsomal CLint at 1 µM [1] [µL/min/mg],half-life at 1 µM [2] [min]
O=C(O)CNC(=O)c1ncc(C2CCN(C(=O)CNc3ccccc3)CC2)cc1O,56.8,,
O=C(O)CNC(=O)c1ncc(-c2cn(CCCc3ccc(Cl)cc3)nn2)cc1O,22.7,,
O=C(O)CNC(=O)c1ncc(C2CCN(C(=O)c3cc(F)cc(F)c3)CC2)cc1O,256,,
O=C(O)CNC(=O)c1ncc(C2CCN(C(=O)c3cccc(F)c3)CC2)cc1O,77.1,,
Cc1ccc(C(=O)N2CCC(c3cnc(C(=O)NCC(=O)O)c(O)c3)CC2)cc1,34.6,,
N#Cc1ccc(C(=O)N2CCC(c3cnc(C(=O)NCC(=O)O)c(O)c3)CC2)cc1,76.5,,
O=C(O)CNC(=O)c1ncc(C2CCN(C(=O)c3ccc(Cl)cc3)CC2)cc1O,34.5,,
O=C(O)CNC(=O)c1ncc(C2CCN(C(=O)c3ccccc3)CC2)cc1O,69.7,,
O=C(O)CNC(=O)c1ncc(C2CCN(S(=O)(=O)Cc3ccc(C(F)(F)F)cc3)CC2)cc1O,98.9,5,
O=C(O)CNC(=O)c1ncc(C2CCN(C(=O)c3cccs3)CC2)cc1O,57.6,,
O=C(O)CNC(=O)c1ncc(C2CCN(C(=O)c3ccccn3)CC2)cc1O,158,,
O=C(O)CNC(=O)c1ncc(C2CCN(C(=O)CNc3ccc(OC(F)(F)F)cc3)CC2)cc1O,39.9,,
O=C(O)CNC(=O)c1ncc(C2CCN(C(=O)c3ccc(Cl)cc3Cl)CC2)cc1O,144,,
O=C(O)CNC(=O)c1ncc(C2CCN(C(=O)c3ccccc3Cl)CC2)cc1O,131,,
O=C(O)CNC(=O)c1ncc(C2=CCN(S(=O)(=O)Cc3ccc(C(F)(F)F)cc3)CC2)cc1O,13.1,135,7.35

# — ChEMBL document CHEMBL5331121, “Preferred Conformation-Guided Discovery of Potent and Orally Active HIF Prolyl Hydroxylase 2 Inhibitors for the Treatment of Anemia” (J Med Chem, 2023)
